In patent US20250353859A1, “COMPOUNDS AS CCR6 INHIBITORS” (Hoffmann-La Roche Inc., priority 2023, published 2025):
pIC50: −log10 of the molar value. Like-named read-outs stand apart in the source and are kept apart here.

Biological target: T1, human CCR6 (Homo sapiens, UniProt P51684)
T1 sequence (P51684 1-374): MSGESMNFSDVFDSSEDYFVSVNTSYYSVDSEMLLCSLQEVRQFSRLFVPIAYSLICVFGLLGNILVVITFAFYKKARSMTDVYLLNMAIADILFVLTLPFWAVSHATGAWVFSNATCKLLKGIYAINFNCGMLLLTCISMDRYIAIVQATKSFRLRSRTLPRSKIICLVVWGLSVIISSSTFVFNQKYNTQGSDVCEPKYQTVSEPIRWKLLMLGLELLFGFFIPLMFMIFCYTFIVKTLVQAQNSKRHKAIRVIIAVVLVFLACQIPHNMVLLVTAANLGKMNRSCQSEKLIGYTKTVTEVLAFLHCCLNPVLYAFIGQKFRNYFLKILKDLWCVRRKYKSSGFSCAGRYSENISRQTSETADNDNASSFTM
Test: Human CCR6-CRE reporter assay
Assay type: cell-based
Design: The second construct contained the open reading frame of human CCR6 in the pUNO1 backbone; host or cells: 293FT cells (transient transfection with TransIT-293)
Details: for IC50: 293FT cells transfected with human CCR6 and CRE-luciferase, Forskolin + CCL20, 5 h, relative Log IC50, read-out: CCR6-CRE reporter (converted); for pIC50: scaffold variant X = O, R1 = CF3, read-out: Activity in human CCR6-CRE reporter assay
Experimental: 293FT cells were transfected with 2 constructs using TransIT-293 (Mirus). The first construct (pGL4.29, Promega) expressed the luciferase reporter gene luc2P in response to the binding of cAMP-induced CREB to the CREelement in its promoter. The second construct contained the open reading frame of human CCR6 in the pUNO1 backbone under the control of an enhanced CMV promoter(InVivoGen).48 h after transfection, cells were harvested and diluted to 750,000 cells/ml in culture medium (DMEM, 10% FBS, 1× pen/strep(Gibco 15140)). Compounds were 2.5-fold serially diluted in DMSO. Further dilutions were made in assay medium (DMEM, 10% FBS, 1× pen/strep, 6 μM Forskolin, 6 nM CCL20). 4 μl of the compound solution was added to a white MW384 plate, followed by […] of the cell suspension. Final DMSO concentration in the assay was 0.1%. The MW384 plate was placed in an incubator at 37° C., 5% CO2 for 5 h. Luciferase activity was determined by addition of 24 μl of a 2.5× diluted BriteLite luciferase solution(Perkin Elmer), followed by luminescence measurement using a VICTOR Plate reader (Perkin Elmer). […] The relative Log IC50 was determined with GraphPad Prism 9 using a four-parameter dose-response model.

Row | IC50 [nM] | pIC50 | SMILES
1 | 398 |  | N#Cc1ccc(-c2ccc(S(=O)(=O)N3CCC(Nc4cccc(OC(F)F)c4)CC3)cc2)cc1 [Example 2, 4′-[(4-{[3-(difluoromethoxy)phenyl]Amino}piperidin-1-yl)sulfonyl]-[1,1′-biphenyl]-4-carbonitrile]
2 | 126 |  | NC(=O)c1cccc(-c2ccc(S(=O)(=O)N3CCC(Nc4ccc(OC(F)(F)F)cc4)CC3)cc2)c1 [Example 5, 4′-[(4-{[4-(trifluoromethoxy)phenyl]Amino}piperidin-1-yl)sulfonyl]-[1,1′-biphenyl]-3-carboxamide]
3 | 200 |  | N#Cc1ccc(-c2ccc(S(=O)(=O)N3CCC(Nc4ccc(OC(F)(F)F)cn4)CC3)cc2)cc1 [Example 7, 4′-[(4-{[5-(trifluoromethoxy)pyridin-2-yl]Amino}piperidin-1-yl)sulfonyl]-[1,1′-biphenyl]-4-carbonitrile]
4 | 79.4 |  | NC(=O)c1cccc(-c2ccc(S(=O)(=O)N3CCC(Nc4ccc(OC(F)(F)F)cn4)CC3)cc2)c1 [Example 9, 4′-[(4-{[5-(trifluoromethoxy)pyridin-2-yl]Amino}piperidin-1-yl)sulfonyl]-[1,1′-biphenyl]-3-carboxamide]
5 | 3160 |  | O=C1NCc2ccc(-c3ccc(S(=O)(=O)N4CCC(Nc5cccc(OC(F)(F)F)c5)CC4)cc3)cc21 [Example 10, 6-{4-[(4-{[3-(trifluoromethoxy)phenyl]Amino}piperidin-1-yl)sulfonyl]phenyl}-2,3-dihydro-1H-isoindol-1-one]
6 |  | 6.82 | O=S(=O)(c1ccc(-c2ccc3nccn3c2)cc1)N1CCC(Nc2ccc(OC(F)(F)F)cn2)CC1 [Example 12, N-[1-(4-{imidazo[1,2-a]pyridin-6-yl}benzenesulfonyl)piperidin-4-yl]-5-(trifluoromethoxy)pyridin-2-amine]
7 | 79.4 |  | Cc1cnc2ccc(-c3ccc(S(=O)(=O)N4CCC(Nc5ccc(OC(F)(F)F)cc5)CC4)cc3)cn12 [Example 16, 1-(4-{3-methylimidazo[1,2-a]pyridin-6-yl}benzenesulfonyl)-N-[4-(trifluoromethoxy)phenyl]piperidin-4-amine]
8 | 251 |  | COCc1nnc2ccc(-c3ccc(S(=O)(=O)N4CCC(Nc5ccc(OC(F)(F)F)cc5)CC4)cc3)cn12 [Example 22, 1-{4-[3-(methoxymethyl)-[1,2,4]triazolo[4,3-a]pyridin-6-yl]benzenesulfonyl}-N-[4-(trifluoromethoxy)phenyl]piperidin-4-amine]
9 | 631 | 5.96 | O=S(=O)(c1ccc(-c2ccccc2)cc1)N1CCC(Nc2ccc(OC(F)(F)F)cc2)CC1 [Example 25, 1-{[1,1′-biphenyl]-4-sulfonyl}-N-[4-(trifluoromethoxy)phenyl]piperidin-4-amine]
10 | 501 |  | O=S(=O)(c1ccc(-c2ccccc2)cc1)N1CCC(Nc2ccc(OC(F)F)cc2)CC1 [Example 26, 1-{[1,1′-biphenyl]-4-sulfonyl}-N-[4-(difluoromethoxy)phenyl]piperidin-4-amine]
11 | 200 |  | Cc1n[nH]c2ccc(-c3ccc(S(=O)(=O)N4CCC(Nc5ccc(OC(F)F)cc5)CC4)cc3)cc12 [Example 27, N-[4-(difluoromethoxy)phenyl]-1-[4-(3-methyl-1H-indazol-5-yl)benzenesulfonyl]piperidin-4-amine]
12 | 50.1 |  | CC(C)c1cnc2ccc(-c3ccc(S(=O)(=O)N4CCC(Nc5ccc(SC(F)(F)F)cc5)CC4)cc3)cn12 [Example 31, 1-{4-[3-(propan-2-yl)imidazo[1,2-a]pyridin-6-yl]benzenesulfonyl}-N-{4-[(trifluoromethyl)sulfanyl]phenyl}piperidin-4-amine]
13 | 63.1 |  | NC(=O)c1cc(-c2ccc(S(=O)(=O)N3CCC(Nc4ccc(SC(F)(F)F)cc4)CC3)cc2)ccn1 [Example 34, 4-(4-{[4-({4-[(trifluoromethyl)sulfanyl]phenyl}Amino)piperidin-1-yl]sulfonyl}phenyl)pyridine-2-carboxamide]
14 | 2510 |  | CC1CC(Nc2ccc(OC(F)(F)F)cc2)CCN1S(=O)(=O)c1ccc(-c2ccccc2)cc1 (stereo not shown) [Example 35, 1-{[1,1′-biphenyl]-4-sulfonyl}-2-methyl-N-[4-(trifluoromethoxy)phenyl]piperidin-4-amine]
15 | 398 |  | CC1CC(Nc2ccc(OC(F)(F)F)cc2)CCN1S(=O)(=O)c1ccc(-c2ccc(C#N)cc2)cc1 (stereo not shown) [Example 36, 4′-[(2-methyl-4-{[4-(trifluoromethoxy)phenyl]Amino}piperidin-1-yl)sulfonyl]-[1,1′-biphenyl]-4-carbonitrile]
16 | 251 |  | CC1CC(Nc2ccc(OC(F)(F)F)cc2)CCN1S(=O)(=O)c1ccc(-c2ccc3c(c2)C(=O)NC3)cc1 (stereo not shown) [Example 37, 6-{4-[(2-methyl-4-{[4-(trifluoromethoxy)phenyl]Amino}piperidin-1-yl)sulfonyl]phenyl}-2,3-dihydro-1H-isoindol-1-one]
17 | 126 |  | CNC(=O)c1cccc(-c2ccc(S(=O)(=O)N3CCC(Nc4ccc(OC(F)(F)F)cc4)CC3C)cc2)c1 (stereo not shown) [Example 38, N-methyl-4′-[(2-methyl-4-{[4-(trifluoromethoxy)phenyl]Amino}piperidin-1-yl)sulfonyl]-[1,1′-biphenyl]-3-carboxamide]
18 | 100 |  | N#Cc1ccc(-c2ccc(S(=O)(=O)[C@H]3CC[C@H](Nc4ccc(OC(F)(F)F)cc4)CC3)cc2)cc1 [Example 39, 4′-{[trans-4-{[4-(trifluoromethoxy)phenyl]Amino}cyclohexyl]sulfonyl}-[1,1′-biphenyl]-4-carbonitrile]
19 | 398 |  | N#Cc1ccc(-c2ccc(S(=O)(=O)[C@H]3CC[C@H](Nc4cccc(OC(F)(F)F)c4)CC3)cc2)cc1 [Example 40, 4′-{[trans-4-{[3-(trifluoromethoxy)phenyl]Amino}cyclohexyl]sulfonyl}-[1,1′-biphenyl]-4-carbonitrile]
20 | 79.4 |  | O=S(=O)(c1ccc(-c2ccc3nccn3c2)cc1)[C@H]1CC[C@H](Nc2ccc(SC(F)(F)F)cc2)CC1 [Example 45, N-[trans-4-(4-{imidazo[1,2-a]pyridin-6-yl}benzenesulfonyl)cyclohexyl]-4-[(trifluoromethyl)sulfanyl]aniline]
21 | 100 |  | CC(C)c1cnc2ccc(-c3ccc(S(=O)(=O)[C@H]4CC[C@H](Nc5cccc(SC(F)(F)F)c5)CC4)cc3)cn12 [Example 47, N-[trans-4-{4-[3-(propan-2-yl)imidazo[1,2-a]pyridin-6-yl]benzenesulfonyl}cyclohexyl]-3-[(trifluoromethyl)sulfanyl]aniline]
22 | 79.4 |  | Cc1cc(-c2ccc(S(=O)(=O)[C@H]3CC[C@H](Nc4ccc(SC(F)(F)F)cc4)CC3)cc2)cn2c(C(C)C)cnc12 [Example 48, N-[trans-4-{4-[8-methyl-3-(propan-2-yl)imidazo[1,2-a]pyridin-6-yl]benzenesulfonyl}cyclohexyl]-4-[(trifluoromethyl)sulfanyl]aniline]
23 | 63.1 |  | NC(=O)c1cc(-c2ccc(S(=O)(=O)[C@H]3CC[C@H](Nc4ccc(SC(F)(F)F)cc4)CC3)cc2)ccn1 [Example 49, 4-(4-{[trans-4-({4-[(trifluoromethyl)sulfanyl]phenyl}Amino)cyclohexyl]sulfonyl}phenyl)pyridine-2-carboxamide]
24 | 79.4 |  | O=c1[nH]nc2ccc(-c3ccc(S(=O)(=O)[C@H]4CC[C@H](Nc5ccc(SC(F)(F)F)cc5)CC4)cc3)cn12 [Example 50, 6-(4-{[trans-4-({4-[(trifluoromethyl)sulfanyl]phenyl}Amino)cyclohexyl]sulfonyl}phenyl)-2H,3H-[1,2,4]triazolo[4,3-a]pyridin-3-one]
25 | 158 |  | N=S(=O)(c1ccc(-c2ccc3nccn3c2)cc1)[C@H]1CC[C@H](Nc2ccc(SC(F)(F)F)cc2)CC1 (stereo partly drawn) [Example 52, (4-{imidazo[1,2-a]pyridin-6-yl}phenyl)[trans-4-({4-[(trifluoromethyl)sulfanyl]phenyl}Amino)cyclohexyl](imino)-λ^6-sulfanone]
26 | 316 |  | N=S(=O)(c1ccc(-c2ccc3n[nH]c(=O)n3c2)cc1)[C@H]1CC[C@H](Nc2ccc(SC(F)(F)F)cc2)CC1 (stereo partly drawn) [Example 53, 6-(4-{[trans-4-({4-[(trifluoromethyl)sulfanyl]phenyl}Amino)cyclohexyl]sulfonimidoyl}phenyl)-2H,3H-[1,2,4]triazolo[4,3-a]pyridin-3-one]
27 | 631 |  | N=S(=O)(c1ccc(-c2ccc3nccn3c2)cc1)[C@H]1CC[C@H](Nc2ccc(OC(F)(F)F)cn2)CC1 (stereo partly drawn) [Example 54, (4-{imidazo[1,2-a]pyridin-6-yl}phenyl)[trans-4-{[5-(trifluoromethoxy)pyridin-2-yl]Amino}cyclohexyl](imino)-λ^6-sulfanone]
